{"source": "patent US20080255121A1", "about": "“Combination Drug for Treating Autoimmune Disease” (DAINIPPON SUMITOMO PHARMA CO., LTD., priority 2004, published 2008)", "key": {"CaMKIIα derived from rat": {"biological_target": "T1, CaMKIIα derived from rat (Rattus norvegicus, UniProt P11275)", "T1 construct": "purchased Santa Cruz, Inc", "T1 sequence (P11275 whole entry)": "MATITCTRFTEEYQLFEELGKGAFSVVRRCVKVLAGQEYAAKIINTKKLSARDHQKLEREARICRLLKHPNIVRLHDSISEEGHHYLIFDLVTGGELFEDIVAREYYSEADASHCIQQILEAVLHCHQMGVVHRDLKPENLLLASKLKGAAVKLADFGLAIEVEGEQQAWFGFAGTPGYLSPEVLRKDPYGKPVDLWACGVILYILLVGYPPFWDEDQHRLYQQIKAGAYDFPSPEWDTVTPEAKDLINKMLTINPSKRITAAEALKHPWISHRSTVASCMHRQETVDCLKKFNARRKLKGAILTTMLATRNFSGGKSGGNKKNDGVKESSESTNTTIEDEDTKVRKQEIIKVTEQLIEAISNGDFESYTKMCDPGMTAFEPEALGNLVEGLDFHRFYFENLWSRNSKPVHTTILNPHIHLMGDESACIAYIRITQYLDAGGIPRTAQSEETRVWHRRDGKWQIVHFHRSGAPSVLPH", "assay": "Examination of CaMKII inhibitory activity (1), phosphorylation of Autocamtide-2", "format": "biochemical", "procedure": "Test substances were dissolved in DMSO and diluted to various concentrations with a buffer solution (50 mM Tris-HCl: pH 7.5, 10 mM MgCl2, 1 mM Dithiothreitol (DTT)) (all of them are available from Nacalai Tesque, Inc.) for CaMKII reaction. CaMKIIα (final concentration 0.75 μg/ml) (Santa Cruz, Inc.) derived from rat was mixed with Autocamtide-2® (40 μM) (CALBIOCHEM Company) dissolved in CaMKII reaction buffer solution in the presence of the test substance and with CaMKII activation buffer solution (1 mMCaCl2, 1 μM calmodulin) (Nacalai Tesque, Inc.) and the reaction was started by further adding ATP (50 μM) (Nacalai Tesque, Inc.). The reaction was performed at 30° C. for five minutes and then SDS-PAGE sample buffer solution was added and the reaction was terminated by boiling for five minutes. Proteins in the reaction mixture were separated by 15% SDS-PAGE and blotted onto a PVDF membrane. Phosphorus taken in by Autocamtide-2 was reacted with an anti-phosphorylated serine/threonine antibody (Santa Cruz, Inc.) and quantified by ECL system (Amersham, Inc.) and NIH Image (downloadable from http://rsb.info.nih.gov/nih-image/)."}, "[1]": {"system": "adjuvant-induced arthritis rats", "assay": "Combination effect on adjuvant-induced arthritis (Example 19)", "format": "in vivo, rat", "details": "only methotrexate 0.060 mg/kg oral once a day 17 days", "procedure": "Combination effect for rat adjuvant-induced arthritis was examined in the same manner as in Example 17.\nThe volume of the left hind paw was measured by water replacement method just before the administration and after the last administration, and AUC (the area under the curve formed by plotting the difference of the value at the time of grouping from the value of each time point during the administration period against the time) of the increased volume of the left hind paw was determined. Joint destruction of the right hind paw (injected paw) and the left hind paw (non-injection paw) can be measured by X-ray and this can be also used as the index to evaluate the combination effect."}, "[2]": {"system": "adjuvant-induced arthritis rats", "assay": "Combination effect on adjuvant-induced arthritis, joint destruction score by soft X-ray (Example 20)", "format": "in vivo, rat", "details": "Compound (I) 40 mg/kg and/or methotrexate 0.06 mg/kg, maximum 12", "procedure": "Combination effect for adjuvant-induced arthritic rats was examined in the same manner as in Example 17.\nEuthanasia was carried out for all the rats by aspiration of high concentration carbon dioxide after the last administration. Both the hind paws were cut off at the middle point of […]. Both the hind paws were fixed with 10% neutral buffered formalin liquid. […] The degree of joint destruction was recorded with a score. Observed sites were three points of the tibia, calcaneum and tarsal bone, and the possible maximum score was 12.\n1: Minimum destruction of joints and bones and new formation of cartilages\n2: Mild destruction of joints and bones and new formation and light ossification of cartilages\n3: Moderate destruction of joints and bones and ossification\n4: Severe destruction and deformation of joints and bones and intense ossification"}, "[3]": {"system": "adjuvant-induced arthritis rats", "assay": "Adjuvant-induced arthritis, therapeutic and prophylactic model", "format": "in vivo, rat", "details": "Compound (I) 2.5 to 80 mg/kg", "procedure": "The adjuvant-induced arthritis model is a representative chronic inflammation model caused in rats, and it is widely used for pharmacological evaluation of antiinflammatory drugs and antirheumatic drugs. Accordingly, effects of Compound (I) and Compound (II) were examined in both therapeutic and prophylactic model. In the therapeutic model, the difference of the volume of a hind leg before and after the dosed period was calculated to examine edema suppression effect by the drug administration and the change of edema volume was examined. In the prophylactic model, the volume of a hind paw was measured over time during the dosed period and the effect of the drug for a long term period was examined. Although the hind paw volume or the edema volume was used as the index of efficacy evaluation, the edema volume means the increment from the normal volume of the hind paw which was not sensitized with the adjuvant, and therefore, the both indices can be used as approximately the same meaning.\nA liquid paraffin suspension (1 mg/200 μl) of Mycobacterium butyricum (adjuvant) was subcutaneously injected at the tarsal part of the right hind paw of SD or Lewis rats (both male, six-week old) to cause arthritis. In the therapeutic model, 0.5% methylcellulose suspension of Compound (I) or Compound (II) which was prepared so that the dose was 1 ml per 100 g body weight was orally administered once a day for consecutive five days from the 17th day after the injection of the adjuvant. An indomethacin suspension prepared in the similar way was administered as the positive control. The volume of the hind paws was measured respectively for the right and the left by water replacement method just before the administration and in five hours after the last administration and the difference in the values just before the administration and in five hours after the last administration was calculated and assumed as the change in the edema volume. In the prophylatic model, the compounds were administered once a day for consecutive 21 days after the day when the adjuvant was injected. The volume of the right and left hind paws was measured by water replacement method every other day. In the prophylactic model of Compound (II), a suspension of D-penicillamine, an antirheumatic drug, was administered in the same way as a control."}, "adjuvant arthritis rats": {"system": "adjuvant arthritis rats", "details": "reported in Patent Documents 3, 4 and Non-Patent Documents 3 to 5; cited from earlier work"}, "[4]": {"system": "mouse type III allergy reaction", "details": "reported in Patent Document 4; cited from earlier work"}, "[5]": {"system": "experimental allergic encephalomyelitis mice", "assay": "Experimental allergic encephalomyelitis, Compound (I)", "format": "in vivo", "description": "The severity of the condition was indicated as a score (disease score) according to the following criteria.\n0.5: Slight paralysis of tail\n2: Light paralysis of hind paw\n3: Medium to intense paralysis of hind paw or light forelimb paralysis\n4: Complete paralysis of hind paw or medium to intense paralysis of forelimb\n5: Paralysis of four limbs or toward death period\nIn the prednisolone administered group as a positive control, prednisolone was suspended in 0.5% methylcellulose solution to prepare a liquid of 0.3 mg/ml for administration and 0.1 ml per 10 g mouse weight was orally administered. In a control group, only 0.5% methylcellulose solution was […] administered. The administration was started on the sensitization day and carried out once a day for consecutive 40 days."}}, "note": "Values joined by “and” are separate entries in the source; they are usually repeats but may differ in a detail not shown here. Equal values may be shown once.", "data": [{"smiles": "CC(c1ccc(-c2ccccc2)c(F)c1)c1cc(/N=C(/N)N(C)C)on1.Cl", "note": "(stereo not shown) [Compound (Ib), N′-{3-[1-(2-fluorobiphenyl-4-yl)-ethyl]-isoxazol-5-yl}-N,N-dimethyl-guanidine hydrochloride]", "values": [{"measurement": "Inhibition rate (%)", "setting": "CaMKIIα derived from rat; Concentration 0.1 μm", "value": 13, "unit": "%"}, {"measurement": "Inhibition rate (%)", "setting": "CaMKIIα derived from rat; Concentration 1 μm", "value": 42, "unit": "%"}, {"measurement": "Inhibition rate (%)", "setting": "CaMKIIα derived from rat; Concentration 10 μm", "value": 71, "unit": "%"}]}, {"smiles": "CCN/C(N)=N/c1cc(C(C)c2ccc(-c3ccccc3)c(F)c2)no1.Cl", "note": "(stereo not shown) [Compound (Ic), N-ethyl-N′-{3-[1-(2-fluorobiphenyl-4-yl)-ethyl]-isoxazol-5-yl}-guanidine hydrochloride]", "values": [{"measurement": "Inhibition rate (%)", "setting": "CaMKIIα derived from rat; Concentration 0.1 μm", "value": 11, "unit": "%"}, {"measurement": "Inhibition rate (%)", "setting": "CaMKIIα derived from rat; Concentration 1 μm", "value": 36, "unit": "%"}, {"measurement": "Inhibition rate (%)", "setting": "CaMKIIα derived from rat; Concentration 10 μm", "value": 68, "unit": "%"}]}, {"smiles": "CN(Cc1cnc2nc(N)nc(N)c2n1)c1ccc(C(=O)N[C@@H](CCC(=O)O)C(=O)O)cc1", "note": "[methotrexate, reference compound]", "values": [{"measurement": "increased volume and onset ratio of left hind paw", "setting": "[1]", "value": "onset suppressing effect and edema suppressing effect"}, {"measurement": "joint destruction score of the left hind paw, representative individual which showed an average score in the group", "setting": "[2]; control score 3", "value": 2}, {"measurement": "joint destruction score of the right hind paw, representative individual which showed an average score in the group", "setting": "[2]; control score 10", "value": 9}]}, {"smiles": "CNc1nc(C(C)c2ccc(-c3ccccc3)c(F)c2)cs1", "note": "(stereo not shown) [Compound (II), 4-[1-(2-fluorobiphenyl-4-yl)ethyl]-2-(methylamino)thiazole]", "values": [{"measurement": "Inhibition rate (%)", "setting": "CaMKIIα derived from rat; Concentration 0.1 μm", "value": 45, "unit": "%"}, {"measurement": "Inhibition rate (%)", "setting": "CaMKIIα derived from rat; Concentration 1 μm", "value": 62, "unit": "%"}, {"measurement": "Inhibition rate (%)", "setting": "CaMKIIα derived from rat; Concentration 10 μm", "value": 92, "unit": "%"}, {"measurement": "hind paw volume / edema volume", "setting": "[3]; prophylactic model, oral once a day for 21 days, Compound (II) 50 mg/kg, FIGS. 8 and 9", "value": "remarkable edema suppressing effect"}, {"measurement": "change of edema volume of hind paw", "setting": "[3]; therapeutic model, oral once a day for five days from 17th day, Compound (II) 10 to 50 mg/kg, FIGS. 6 and 7", "value": "remarkable edema suppressing effect"}, {"measurement": "effects on adjuvant arthritis rats", "setting": "adjuvant arthritis rats", "value": "anti-arthritis effects"}, {"measurement": "edema in mouse type III allergy reaction tests", "setting": "[4]", "value": "inhibitory effects on edema"}]}, {"smiles": "C[C@]12C=CC(=O)C=C1CC[C@@H]1[C@@H]2[C@@H](O)C[C@@]2(C)[C@H]1CC[C@]2(O)C(=O)CO", "note": "[Prednisolone, prednisolone, reference compound]", "values": [{"measurement": "weight gain (natural accruement of weight by growth)", "setting": "[5]; Compound (I) 20 to 80 mg/kg, prednisolone 3 mg/kg, oral once a day 40 days, FIG. 14", "value": "strongly suppressed natural accruement of weight by growth"}, {"measurement": "Death Rate", "setting": "[5]; Dose 3 mg/kg oral once a day 40 days", "value": "0/10"}, {"measurement": "Onset Rate", "setting": "[5]; Dose 3 mg/kg oral once a day 40 days, 3 mg/kg", "value": "2 of 10 and 2/10"}]}]}
